{"source": "patent US11046701B2", "about": "“Salt of cetagliptin, preparation method thereof, pharmaceutical composition, and use thereof” (CGENETECH (SUZHOU, CHINA) CO., LTD., priority 2018, dated 2021)", "key": {"[1]": {"experiment": "Dynamic vapor sorption (DVS)", "type": "physicochemical", "description": "Dynamic vapor sorption (DVS): Dynamic vapor sorption (DVS) curves were acquired by DVS Intrinsic of SMS (Surface Measurement Systems). The relative humidity at 25° C. was corrected by deliquescence points of LiCl, Mg(NO3)2 and KCl.\nThe crystal form B of phosphate prepared in this example was put into a 1.5 mL small bottle and the small bottles was placed under different conditions: 40° C./75% RH or 25° C./60% RH for one week in an open state, or 80° C. for 24 h. The obtained samples were subjected to XRPD test and HPLC test, and the sealed samples placed at 5° C. were used as reference samples (Initial) for HPLC purity test. […] The weight gain at 25° C./80% RH is 6.5% compared to 0% RH."}, "[2]": {"conditions": "mouse, in vivo, po", "method": "A solution with a certain concentration was prepared from the crystal form B of the phosphate, and the administration volume was 10 mL/kg.\nExperimental animals: C57BL16 mice aged for 5 weeks and weighed for about 13-16 g.\nGrouping and administration scheme: the mice were fed adaptively and divided into a normal control group and a model group which were fed with high-fat feed (Research diets, D 12492). When the fasting blood glucose of the mice was greater than or equal to 7 mM, it was considered that the mice had become DIO mice. The DIO mice could be selected for the hypoglycemic effect test. The DIO mice were stratified and randomly grouped according to the blood glucose and the weight. […] The weight and the fasting blood glucose were measured weekly; the food amount, the remaining food amount and the food intake were recorded; the mice were fasted overnight at the end of administration, the blood was sampled, and the free fatty acid (NEFA), total cholesterol (TCHO), triglyceride (TG), insulin and DPPIV activity were measured by using serum."}, "[3]": {"target": "serum DPPIV (Mus musculus, UniProt P28843)", "sequence (P28843 38-760 limits assumed)": "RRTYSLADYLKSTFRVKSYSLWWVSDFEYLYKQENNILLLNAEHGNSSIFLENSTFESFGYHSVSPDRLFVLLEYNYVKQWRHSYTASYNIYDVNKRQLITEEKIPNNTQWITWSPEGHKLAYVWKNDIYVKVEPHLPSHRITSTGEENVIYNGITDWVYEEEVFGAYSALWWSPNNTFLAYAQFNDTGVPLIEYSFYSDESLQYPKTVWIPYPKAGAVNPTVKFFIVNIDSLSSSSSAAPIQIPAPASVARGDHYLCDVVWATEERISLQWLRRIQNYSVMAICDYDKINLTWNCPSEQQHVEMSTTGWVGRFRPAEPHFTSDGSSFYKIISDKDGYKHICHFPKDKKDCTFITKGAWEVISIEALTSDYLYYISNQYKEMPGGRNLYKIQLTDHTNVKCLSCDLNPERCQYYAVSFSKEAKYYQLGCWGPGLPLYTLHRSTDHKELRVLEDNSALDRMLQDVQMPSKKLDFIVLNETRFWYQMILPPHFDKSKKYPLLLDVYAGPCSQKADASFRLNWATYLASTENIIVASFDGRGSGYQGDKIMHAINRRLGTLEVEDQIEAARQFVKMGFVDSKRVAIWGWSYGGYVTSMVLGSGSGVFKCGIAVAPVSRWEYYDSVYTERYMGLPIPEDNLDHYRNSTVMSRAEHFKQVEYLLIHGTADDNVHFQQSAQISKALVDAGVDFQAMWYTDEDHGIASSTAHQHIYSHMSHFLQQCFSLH", "experiment": "Long-term administration on DIO mice: inhibition of serum DPPIV", "type": "in vivo, C57BL16 mice", "parameters": "from tissue; host or cells: serum of diet-induced obese C57BL mice after 28 days of oral dosing", "conditions": "after long-term administration", "description": "Table 18 was a total data table of the metabolic parameters."}}}
{"smiles": "C[C@@H]1c2cnc(C(F)(F)F)n2CCN1C(=O)C[C@H](N)Cc1cc(F)c(F)cc1F", "note": "[DPPIV-P1, (8R)-7-[(3R)-3-amino-1-oxo-4-(2,4,5-trifluorophenyl)butyl]-5,6,7,8-tetrahydro-8-methyl-3-(trifluoromethyl)imidazo[1,5-a]pyrazine]", "values": [{"measurement": "weight gain (DVS)", "setting": "[1]; 25° C./80% RH compared to 0% RH", "value": 6.5, "unit": "%"}, {"measurement": "crystal form before and after the DVS test (XRPD)", "setting": "[1]; after DVS test", "value": "the crystal form remained unchanged"}, {"measurement": "tolerance after long-term administration", "setting": "[2]", "value": "good in tolerance and not easy to induce hypoglycemia"}, {"measurement": "inhibition effect on the serum DPPIV compared with sitagliptin phosphate", "setting": "[3]", "value": "obviously higher than that of sitagliptin phosphate"}, {"measurement": "inhibition at 0.3 mg/kg", "setting": "[3]; mouse, 0.3 mg/kg, vs model control group, read-out: inhibition rate against DPPIV (serum)", "value": 47.1, "unit": "%"}, {"measurement": "inhibition at 3 mg/kg", "setting": "[3]; mouse, 3 mg/kg, vs model control group, read-out: inhibition rate against DPPIV (serum)", "value": 82.7, "unit": "%"}, {"measurement": "inhibition at 30 mg/kg", "setting": "[3]; mouse, 30 mg/kg, vs model control group, read-out: inhibition rate against DPPIV (serum)", "value": 95.3, "unit": "%"}]}
